Reference: publication PMC12294753, “Development of INER-PP-F11N as the Peptide-Radionuclide Conjugate Drug Against CCK2 Receptor-Overexpressing Tumors” (International Journal of Molecular Sciences, 2025)
Read-outs that look alike come from different tables or passages of the source. Where a SMILES comes first, the peptide text is derived from it. [ ]: non-standard residue; d: D form. The star is where a group is joined. DOTA = O=C(O)CN1CCN(CC(=O)O)CCN(CC(=O)*)CCN(CC(=O)O)CC1; Butanoyl(4-(4-MePh)) = Cc1ccc(CCCC(=O)*)cc1; 4Amb = NCc1ccc(C(=O)O)cc1; Nle = CCCC[C@H](N)C(=O)O

Legend:
CCK2R = test system: CCK2R; design: method as in PMID 10494457, PMID 10188727; conditions: cited from earlier work
[1] = test system: human gastric cancer ascites cells; design: method as in PMID 10494457, PMID 10188727; conditions: mouse models inoculated with human gastric cancer ascites cells; cited from earlier work
[2] = test system: human pancreatic cancer cells; design: method as in PMID 10636070, PMID 7813546; conditions: cited from earlier work
[3] = Metabolic stability analysis (radio-HPLC) in PBS at 4 °C or FBS at 37 °C; type: in vitro ADME
Procedure: DOTA-PP-F11N, DOTA-INER-PP-F11N-1, and DOTA-INER-PP-F11N-2 were labeled with In-111 and Lu-177 for further experiments. The detection of free In-111 after ITLC extension was defined as 0% radiolabeling efficiency. […]
To measure the labeling efficiency, ITLC was performed on glass microfiber chromatography paper impregnated with a silica gel (Agilent Technologies, Santa Clara, CA, USA) as described previously. Briefly, the ITLC sheets were developed with 10% methanol as solvent (Rf free Lu-177 = 0, Rf Lu-177-labeled compounds = 1) and measured using a radioactive scanner (AR-2000 radio-TLC […] Imaging Scanner, Bioscan, France). The sample was mixed with acetonitrile at a 1:1 (v/v) ratio, followed by centrifugation at 16,000× g for 5 min. The resulting supernatant was subsequently analyzed using HPLC with UV (220[…]) and radio detector with a Zorbax SB-C18 column (Agilent Technologies, Santa Clara, CA, USA). The flow rate was 0.8 mL/min, with the gradient mobile phase going from 90% A […] buffer (0.1% TFA in water) and 10% B buffer (0.1% TFA in acetonitrile) to 90% B buffer […] within 20 min.

A431-CCK2R (−) cells = experiment: In vitro binding and internalization assay, A431-CCK2R (−) cells; type: cell-based; conditions: 37 °C
Procedure: (§1) In vitro binding and internalization activities were measured using a gamma counter (WIZARD 1480, Perkin-Elmer). Briefly, A431-CCK2R (+) and A431-CCK2R (−) cells were seeded on 24-well plates (1 × 10^5 cells/well, Corning, NY, USA) for 12 h. The plated cells were treated with 30 ± 10 GBq/µmol of [^177Lu]Lu-DOTA-PP-F11N, [^177Lu]Lu-DOTA-INER-PP-F11N-1, or [^177Lu]Lu-DOTA-INER-PP-F11N-2 (1 mL/well) and then incubated at 37 °C for either 1 or 4 h. After incubation, the medium was collected, and the cells were then washed with ice-cold buffer. The medium and washed PBS were collected in tube 0. The washed cells were treated with glycine–HCl buffer (0.1 M, pH 3.0) and incubated for 10 min. After incubation, cells were washed again with glycine–HCl buffer. Both glycine-HCl buffer solutions were collected in tube 1. The washed cells were treated with 1 N NaOH (1 mL/well) and incubated for 10 min for cell lysis. After incubation, the cells were washed once with 1 N NaOH. The cell lysate solution was collected in tube 2. All tubes were analyzed using a gamma counter to detect radioactivity. Data were obtained from at least three independent experiments. The respective formulae for in vitro surface binding activity and internalization were as follows:Surface binding = tube 1/(tube 0 + tube 1 + tube 2) × 100%.Internalization = tube 2/(tube 0 + tube 1 + tube 2) × 100%.

A431-CCK2R (+) cells = experiment: In vitro binding and internalization assay, A431-CCK2R (+) cells; type: cell-based; design: surface binding activity / internalization activity: concentration or dose not given beside the values; conditions: for internalization activity / surface binding activity: A431-CCK2R (+) cells, 37 °C; for enhancement of internalization activity compared with PP-F11N: A431 CCK2R (+) cells, compared with conventional [^177Lu]Lu-DOTA-PP-F11N
Procedure: as §1

[4] = test system: A431-CCK2R (−)/A431-CCK2R (+) tumor-bearing mice; experiment: NanoSPECT/CT imaging of tumor-bearing mice; type: in vivo
Procedure: (§2) To generate A431-CCK2R (+) and A431-CCK2R (−) tumor-bearing mice models, mice (3 per group) were inoculated subcutaneously with 6 × 10^6 cells, which were injected into the inner right back leg for A431-CCK2R (+) tumors and the left back leg for A431-CCK2R (−) tumors, respectively. These xenografts were monitored until the tumor volume reached approximately 200–500 mm^3 [57]. The mice were then randomized to subgroups for further experiments. The formula for calculating tumor volume (V) is V = 4/3πr^3.
The NanoSPECT/CT® plus scanner system (Mediso Medical Imaging Systems; Budapest, Hungary) was utilized to detect in vivo tumors in the in vivo animal models. Both A431-CCK2R (+) and A431-CCK2R (−) cancer cells were inoculated subcutaneously into the inner right leg and left back leg of the mice. Radiopharmaceuticals—[^111In]In-DOTA-PP-F11N, [^111In]In-DOTA-INER-PP-F11N-1, and [^111In]In-DOTA-INER-PP-F11N-2 (1 mCi)—were injected once the mean tumor volume reached approximately 200–500 mm^3. Inhalant (1–2% isoflurane) was used to anesthetize the mice during imaging acquisition. X-ray CT images and SPECT images were taken 4, 24, and 48 h after tail-vein injection. NanoSPECT imaging was acquired using nine multi-pinhole gamma detectors with high-resolution collimators. The energy window was set at 171 and 245 KeV ± 10%, the image size was set at 256 × 256, and the field of view was set at 60 mm × 100 mm.
For Lu-177, only 208 keV photons were used for imaging, with an energy window set at 208 keV ± 10%. Although Lu-177 also emits lower abundance photons at 113 keV, the 208 keV photon provides better image quality due to reduced scatter and higher energy resolution. Therefore, the gamma camera energy windows were specifically tailored to the photon emission profiles of each radionuclide to ensure optimal detection efficiency and image accuracy.
(§3) We investigated therapeutic responses in mice receiving [^177Lu]Lu-DOTA-PP-F11N, [^177Lu]Lu-DOTA-INER-PP-F11N-1, or [^177Lu]Lu-DOTA-INER-PP-F11N-2. A431-CCK2R (+) and A431-CCK2R (−) cells were implanted subcutaneously into the right and left inner hind legs of NOD/SCID mice. Once the tumors reached a volume of 200–500 mm^3, the mice were intravenously injected with either 200 μCi of [^177Lu]Lu-DOTA-PP-F11N, [^177Lu]Lu-DOTA-INER-PP-F11N-1, [^177Lu]Lu-DOTA-INER-PP-F11N-2, or PBS (as a non-radioactive control). The NanoSPECT/CT® plus scanner system (Mediso Medical Imaging Systems; Budapest, Hungary) was utilized to detect and image tumors in the mouse models. Tumor volumes were measured twice a week for 4 weeks.

[5] = Biodistribution study in tumor-bearing mice; type: in vivo; conditions: mouse, intravenous, total radioactivity, 72 h after tail-vein injection, tumor-bearing mice
Procedure: as §2
(§4) Mice were sacrificed via CO2 asphyxiation 72 h after intravenous injection of 50–100 μCi (50–100 μL) of radiolabeled DOTA-PP-F11N, DOTA-INER-PP-F11N-1, or DOTA-INER-PP-F11N-2 [58]. Tumors and organs of interest were collected for further pathological examinations. The PerkinElmer 2480 Automatic Gamma Counter (PerkinElmer, Waltham, MA, USA) was used to measure radioactivity; the data are presented as the percentage injected dose per gram of tissue (%ID/g).

A431-CCK2R (+) tumors [6] = experiment: Biodistribution study in tumor-bearing mice; type: in vivo; conditions: biodistribution studies
Procedure: as §2, §4

A431-CCK2R (+) tumors [7] = experiment: Therapeutic responses to Lu-177-labeled CCK2R analogs in CCK2R-expressing cancer-bearing mice; type: in vivo; conditions: 200 μCi intravenously
Procedure: as §2, §3

[8] = Histopathological examinations (H&E) of mice after radiolabeled drug administration; type: in vivo; conditions: light microscopy
Source text: To investigate the pathological alterations in tumor-bearing mice receiving radiopharmaceuticals, […] tissues, including tumors, heart, liver, and kidneys, were collected. The specimens were first fixed using 10% buffered neutral formalin and then embedded in paraffin. Sections of 3–5 μm thickness were stained with H&E and examined using light microscopy (40 × and 20 ×).

C[C@](Cc1c[nH]c2ccccc12)(NC(=O)OC1[C@H]2C[C@@H]3C[C@@H](C[C@H]1C3)C2)C(=O)NC[C@H](NC(=O)CCC(=O)O)c1ccccc1 (stereo partly shown) [CI-988]
gastrin binding to CCK2R (CCK2R): block gastrin binding to CCK2R
survival [1]: improve survival

Cc1cccc(NC(=O)N[C@@H]2N=C(c3ccccc3)c3ccccc3N(C)C2=O)c1 [L-365260]
exogenous gastrin-induced proliferation [2]: inhibited

CCCC[C@H](NC(=O)[C@H](Cc1c[nH]c2ccccc12)NC(=O)CNC(=O)[C@H](Cc1ccc(O)cc1)NC(=O)[C@H](C)NC(=O)[C@@H](CCC(=O)O)NC(=O)[C@@H](CCC(=O)O)NC(=O)[C@@H](CCC(=O)O)NC(=O)[C@@H](CCC(=O)O)NC(=O)[C@@H](CCC(=O)O)NC(=O)[C@@H](CCC(=O)O)NC(=O)c1ccc(CNC(=O)[C@H](CCCCNC(=O)CCCc2ccc(C)cc2)NC(=O)CN2CCN(CC(=O)O)CCN(CC(=O)O)CCN(CC(=O)O)CC2)cc1)C(=O)N[C@@H](CC(=O)O)C(=O)N[C@@H](Cc1ccccc1)C(N)=O [[^177Lu]Lu-DOTA-INER-PP-F11N-1, metal not drawn] ({DOTA}-K(Butanoyl(4-(4-MePh)))[4Amb][dE][dE][dE][dE][dE][dE]AYGW[Nle]DF-NH2)
metabolic stability ([3]; 4 °C PBS, 144 h after Lu-177 labeling): more than 95%
metabolic stability ([3]; Lu-177-labeled, 37 °C FBS, 144 h): > 99%
internalization activity (A431-CCK2R (−) cells; 1 h): 0.32 ± 0.10 %IA/106 cells
surface binding activity (A431-CCK2R (−) cells; 1 h): 1.08 ± 0.49 %IA/106 cells
internalization activity (A431-CCK2R (−) cells; 4 h): 0.17 ± 0.03 %IA/106 cells
internalization activity (A431-CCK2R (+) cells; 1 h): 45.32 ± 6.12%
surface binding activity (A431-CCK2R (+) cells; 1 h): 5.93 ± 1.68%
internalization activity (A431-CCK2R (+) cells; 4 h): 90.49 ± 5.65%
surface binding activity (A431-CCK2R (+) cells; 4 h): 14.57 ± 4.06%
enhancement of internalization activity compared with PP-F11N (A431-CCK2R (+) cells): 26.7%
enhancement of internalization activity compared with PP-F11N (A431-CCK2R (+) cells; listed as 177Lu-DOTA-INER-PP-F11N-1): 27%
radioactivity within the kidneys on NanoSPECT/CT ([4]; compared with Lu-177-labeled PP-F11N over the same period): significantly lower
radiotracer accumulation in the tumor region on NanoSPECT/CT ([4]; tail-vein injection, Lu-177-labeled): avid radiotracer uptake within the tumor
tissue uptake at 72 h ([5]; kidneys, read-out: radiotracer accumulation in the kidneys): 7.4 ± 2.3 %ID/g
tissue uptake at 72 h ([5]; tumor (A431-CCK2R (+)), read-out: tumor uptake of radiopharmaceuticals): 1.14 ± 0.92 %ID/g
tumor-to-kidney ratio (A431-CCK2R (+) tumors [6]): favorable
tumor volume at D23 (A431-CCK2R (+) tumors [7]): 841.33 ± 165.70 mm^3
histopathological changes in the kidneys [8]: no significant histopathological changes
histopathological changes in the liver and heart [8]: no significant histopathological changes
